Several values for one entry are separate records, joined by “and”; a condition that tells them apart may be missing. Identical values can stand only once. Inconclusive results and toxic doses are left out.
Test system: BDF1 mice, P388 leukemia ip, median survival T/C
Assay: NCI In Vivo Anticancer Drug Screen. Data for tumor model P388 Leukemia (intraperitoneal) in B6D2F1 (BDF1) mice
Conditions: endpoint: median survival time, higher = longer survival
How it was run: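 Read-out is survival of treated animals expressed relative to the vehicle group, as a T/C ratio.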

[1] = dose: 100.0 mg/kg/injection, schedule: Q04DX003 (ip), vehicle: saline with Tween-80
[2] = dose: 200.0 mg/kg/injection, schedule: Q04DX003 (ip), vehicle: saline with Tween-80
[3] = dose: 400.0 mg/kg/injection, schedule: Q04DX003 (ip), vehicle: saline with Tween-80
[4] = dose: 50.0 mg/kg/injection, schedule: Q04DX002 (ip), vehicle: saline with Tween-80
[5] = dose: 100.0 mg/kg/injection, schedule: Q04DX002 (ip), vehicle: saline with Tween-80
[6] = dose: 200.0 mg/kg/injection, schedule: Q04DX002 (ip), vehicle: saline with Tween-80

OC1OC(COC(c2ccccc2)(c2ccccc2)c2ccccc2)C(O)C(O)C1O (centres undefined)
T/C (dose: 10.0 mg/kg/injection, schedule: Q01DX009 (ip), vehicle: saline): 123 % of control
T/C (dose: 12.5 mg/kg/injection, schedule: Q01DX009 (ip), vehicle: saline): 88 % of control
T/C (dose: 20.0 mg/kg/injection, schedule: Q01DX009 (ip), vehicle: saline): 108 % of control
T/C (dose: 25.0 mg/kg/injection, schedule: Q01DX009 (ip), vehicle: saline): 104 % of control and 115 % of control
T/C (dose: 40.0 mg/kg/injection, schedule: Q01DX009 (ip), vehicle: saline): 114 % of control
T/C (dose: 50.0 mg/kg/injection, schedule: Q01DX009 (ip), vehicle: saline): 101 % of control and 123 % of control
T/C (dose: 80.0 mg/kg/injection, schedule: Q01DX009 (ip), vehicle: saline): 107 % of control
T/C (dose: 100.0 mg/kg/injection, schedule: Q01DX009 (ip), vehicle: saline): 90 % of control and 104 % of control and 105 % of control
T/C (dose: 100.0 mg/kg/injection, schedule: Q01DX009 (ip), vehicle: water): 100 % of control
T/C [1]: 110 % of control
T/C (dose: 100.0 mg/kg/injection, schedule: Q04DX003 (ip), vehicle: saline): 90 % of control
T/C (dose: 100.0 mg/kg/injection, schedule: Q04DX003 (ip), vehicle: water): 105 % of control
T/C (dose: 200.0 mg/kg/injection, schedule: Q01DX009 (ip), vehicle: water): 105 % of control
T/C [2]: 105 % of control
T/C (dose: 200.0 mg/kg/injection, schedule: Q04DX003 (ip), vehicle: saline): 95 % of control
T/C (dose: 200.0 mg/kg/injection, schedule: Q04DX003 (ip), vehicle: water): 110 % of control
T/C (dose: 400.0 mg/kg/injection, schedule: Q01DX009 (ip), vehicle: water): 105 % of control
T/C [3]: 110 % of control
T/C (dose: 400.0 mg/kg/injection, schedule: Q04DX003 (ip), vehicle: water): 110 % of control

N#Cc1ccc(N)c(CSc2ccccc2)c1
T/C [4]: 93 % of control
T/C [5]: 90 % of control
T/C [6]: 99 % of control

BrCc1ccc(CBr)c(Br)c1
T/C (dose: 6.0 mg/kg/injection, schedule: Q01DX009 (ip), vehicle: Klucel (hydroxypropylcellulose) (HPC)): 89 % of control
T/C (dose: 6.25 mg/kg/injection, schedule: Q04DX003 (ip), vehicle: Klucel (hydroxypropylcellulose) (HPC)): 92 % of control
T/C (dose: 12.0 mg/kg/injection, schedule: Q01DX009 (ip), vehicle: Klucel (hydroxypropylcellulose) (HPC)): 103 % of control
T/C (dose: 12.5 mg/kg/injection, schedule: Q04DX003 (ip), vehicle: Klucel (hydroxypropylcellulose) (HPC)): 96 % of control
T/C (dose: 25.0 mg/kg/injection, schedule: Q01DX009 (ip), vehicle: Klucel (hydroxypropylcellulose) (HPC)): 96 % of control
T/C (dose: 25.0 mg/kg/injection, schedule: Q04DX003 (ip), vehicle: Klucel (hydroxypropylcellulose) (HPC)): 100 % of control

BrCC12CCC1(CBr)COC2 (centres undefined)
T/C (dose: 100.0 mg/kg/injection, schedule: Q01DX001 (ip), vehicle: Klucel (hydroxypropylcellulose) (HPC)): 107 % of control
T/C (dose: 200.0 mg/kg/injection, schedule: Q01DX001 (ip), vehicle: Klucel (hydroxypropylcellulose) (HPC)): 92 % of control
T/C (dose: 400.0 mg/kg/injection, schedule: Q01DX001 (ip), vehicle: Klucel (hydroxypropylcellulose) (HPC)): 100 % of control

CCOC(=O)c1nnc(-c2ccccc2)c(-c2ccccc2)n1
T/C [1]: 104 % of control
T/C [2]: 96 % of control
T/C [3]: 89 % of control

Oc1ccc(/C=N/NC(=S)Nc2ccccc2)nc1
T/C (dose: 400.0 mg/kg/injection, schedule: Q04DX003 (ip), vehicle: Klucel (hydroxypropylcellulose) (HPC)): 150 % of control

COc1ccccc1/C=N/NC(=O)c1ccccc1
T/C [1]: 100 % of control
T/C [2]: 104 % of control
T/C [3]: 104 % of control

O=c1c(Br)cccc(CN2CCOCC2)c1O
T/C (dose: 12.5 mg/kg/injection, schedule: Q04DX002 (ip), vehicle: saline with Tween-80): 101 % of control
T/C (dose: 25.0 mg/kg/injection, schedule: Q04DX002 (ip), vehicle: saline with Tween-80): 96 % of control
T/C [4]: 101 % of control and 106 % of control

Cc1c2oc3c(C)ccc(C(=O)NCCc4ccccn4)c3nc-2c(C(=O)NCCc2ccccn2)c(N)c1=O
T/C [5]: 101 % of control
T/C [6]: 92 % of control
T/C (dose: 400.0 mg/kg/injection, schedule: Q04DX002 (ip), vehicle: saline with Tween-80): 97 % of control
